Laboratory results from patent publication US8466289B2, “Heterocyclic sulfonamide derivatives” (Novartis AG, priority 2009, dated 2013).

How the values were obtained:
[1] = tested on: BRAF-MEK-ERK cascade (activated BRAF (V599E), unactive MEK1, unactive MAP Kinase 2/ERK2); experiment: BRAF-MEK-ERK enzymatic cascade assay (TR-FRET); type: biochemical, human; settings: compounds screened at 10 μM, 45 minutes pre-incubation with enzymes, 100 μM ATP
Source text: A BRAF-MEK-ERK cascade assay is used to evaluate the effects of the compounds as inhibitors of the MAP kinase pathway. An enzymatic cascade assay is set up using recombinant human activated BRAF (V599E) kinase (Cat No. 14-557), human full length unactive MEK1 kinase (Cat No. 14-706) and human full length unactive MAP Kinase 2/ERK2 (Cat No. 14-536) enzymes procured from Upstate. TR-FRET (Time resolved fluorescence resonance energy transfer) detection technology is used for the read out. The assay buffer solution contains 50 mM Tris pH 7.5, 10 mM MgCl2, 1 mM DTT, 0.01% Tween 20, 0.1 nM activated BRAF, 2 nM unactive MEK1, 10 nM unactive ERK2, 100 μM ATP and 500 nM long chain biotin-peptide substrate (LCB-FFKNIVTPRTPPP) in a 384 well format. The kinase reaction is stopped after 90 minutes with 10 mM EDTA and Lance detection mix (2 nM Eu-labeled phospho-serine/threonine antibody (Cat. No. AD0176-Perkin Elmer), 20 nM SA-APC (Cat No. CR130-100-Perkin Elmer) is added. The TR-FRET signal (Excitation at 340 nm, Emission at 615 nm and 665 nm) is read with 50 μs delay time on a Victor3 V fluorimeter. The data is calculated using the ratio of readings at 665 nm to 615 nm. The final concentration of DMSO is 2.5% in the assay. Compounds are screened at 10 μM concentration with pre-incubation of the enzymes in the presence of test compound for 45 minutes.
Each individual IC50 is determined using a 10 point dose response curve generated by GraphPad Prism software Version 4 (San Diego, Calif., USA) using non linear regression curve fit for sigmoidal dose response (variable slope).
These assays described above are fully detailed in Han, Shulin, et. al., Bioorganic & Medicinal Chemistry Letters (2005) 15, 5467-5473, and in Yeh, et. al., Clin Cancer Res (2007) 13 (5), 1576-1583.
(§1) The compounds of the above Examples were evaluated as inhibitors of the MAP kinase pathway in a BRAF-MEK-ERK enzymatic cascade assay and in the cell viability assay described above.

A375 cells = experiment: cell viability assay in A375 cells using XTT; type: cell-based; settings: Homo sapiens, A-375, 72 h, XTT read three days after compound addition
Experimental: The cell viability assay in A375 cells is set up in a 96-well plate format using XTT.
XTT is a yellow tetrazolium salt that is cleaved to an orange formazan dye by the mitochondria of metabolically active cells. The procedure allows for rapid determination in a microtitre plate, to give reproducible and sensitive results.
A375 cells are grown in DMEM media containing 10% FBS and 1 mM sodium pyruvate. Cells are trypsinized and seeded at 1000 cells/well. After allowing the cells to adhere overnight, compound is added to the wells at the following final concentrations: 10, 3, 1, 0.3, 0.1, 0.03, 0.01, 0.001, and 0.0001 μM. The assay is set up in triplicates for each concentration. DMSO concentrations are kept at 0.5%/well. Three days after compound addition, the XTT assay is performed. Wells are washed once with PBS. 100 μL of DMEM media without phenol red or FBS is added to each well. A working solution of XTT containing 1 mg/ml XTT and 100 μL of PMS (stock concentration 0.383 mg/ml) per 5 ml is prepared. 50 μL of the working solution of XTT is added to each well. Absorbance of the plate is read at 465 nm using a Spectramax 190 (Molecular Devices). The absorbance from wells with media and XTT alone, but without cells is considered the blank and subtracted from readings from all wells.
Percentage viability is calculated considering the blank subtracted value from wells treated with DMSO alone as 100% viable. GI50 values are calculated using Graphpad Prism, using non-linear regression curve fit for sigmoidal dose response (variable slope).
The cell viability assay is further described in Scudiero, et. al., Cancer Research (1988) 48, 4827-4833; Weislow, et. al., J. Natl. Cancer Institute, (1989) 81, 577-586; and Roehm, et. al., J. Immunol. Methods [1991]142:257-265.
as §1

Compound	% inhibition [1] [%]	GI50 (A375 cells) [µM]
Cc1c(Nc2ccc(I)cc2F)c(NS(=O)(=O)C2CC2)c2n(c1=O)CCO2 [Example 7A, Cyclopropanesulfonic acid [7-(2-fluoro-4-iodo-phenylamino)-6-methyl-5-oxo-2,3-dihydro-5H-oxazolo[3,2-a]pyridin-8-yl]-amide]	99	0.026
Cc1c(Nc2ccc(I)cc2F)c(NS(=O)(=O)C2CCC2)c2n(c1=O)CCO2 [Example 14A, Cyclobutanesulfonic acid [7-(2-fluoro-4-iodo-phenylamino)-6-methyl-5-oxo-2,3-dihydro-5H-oxazolo[3,2-a]pyridin-8-yl]-amide]	100	0.016
Cc1c(Nc2ccc(I)cc2F)c(NS(=O)(=O)C2CCC2)c2n(c1=O)CCS2 [Example 26A, Cyclobutanesulfonic acid [7-(2-fluoro-4-iodo-phenylamino)-6-methyl-5-oxo-2,3-dihydro-5H-thiazolo[3,2-a]pyridin-8-yl]-amide]	100	0.156
Cc1c(Nc2ccc(I)cc2F)c(NS(=O)(=O)CCC(CO)CO)c2n(c1=O)CCO2 [Example 18A, N-(7-(2-fluoro-4-iodophenylamino)-6-methyl-5-oxo-3,5-dihydro-2H-oxazolo[3,2-a]pyridin-8-yl)-4-hydroxy-3-(hydroxymethyl)butane-1-sulfonamide]	100	4.26
Cc1c(Nc2ccc(Br)cc2F)c(NS(=O)(=O)C2CC2)c2n(c1=O)CCN2 [Example 2A, Cyclopropanesulfonic acid [7-(4-bromo-2-fluoro-phenylamino)-6-methyl-5-oxo-1,2,3,5-tetrahydro-imidazo[1,2-a]pyridin-8-yl]-amide]	100	0.8
Cc1c(Nc2ccc(I)cc2F)c(NS(=O)(=O)C2(CCCO)CC2)c2n(c1=O)CCO2 [Example 12A, 1-(3-Hydroxy-propyl)-cyclopropanesulfonic acid [7-(2-fluoro-4-iodo-phenylamino)-6-methyl-5-oxo-2,3-dihydro-5H-oxazolo[3,2-a]pyridin-8-yl]-amide]	100	0.011
Cc1c(Nc2ccc(I)cc2F)c(NS(=O)(=O)C2(CCO)CC2)c2n(c1=O)CCO2 [Example 9A, 1-(2-Hydroxy-ethyl)-cyclopropanesulfonic acid [7-(2-fluoro-4-iodo-phenylamino)-6-methyl-5-oxo-2,3-dihydro-5H-oxazolo[3,2-a]pyridin-8-yl]-amide]	100	0.019
Cc1c(Nc2ccc(I)cc2F)c(NS(=O)(=O)C2CCCC2)c2n(c1=O)CCS2 [Example 24A, Cyclopentanesulfonic acid [7-(2-fluoro-4-iodo-phenylamino)-6-methyl-5-oxo-2,3-dihydro-5H-thiazolo[3,2-a]pyridin-8-yl]-amide]	100	0.192
Cc1c(Nc2ccc(I)cc2F)c(NS(=O)(=O)C2CC(O)C2)c2n(c1=O)CCN2 (centres unmarked) [Example 6A, 3-Hydroxy-cyclobutanesulfonic acid [7-(2-fluoro-4-iodo-phenylamino)-6-methyl-5-oxo-1,2,3,5-tetrahydro-imidazo[1,2-a]pyridin-8-yl]-amide]	100	1.38
Cc1c(Nc2ccc(I)cc2F)c(NS(=O)(=O)C2CC2)c2n(c1=O)CCN2 [Example 3A, Cyclopropanesulfonic acid [7-(2-fluoro-4-iodo-phenylamino)-6-methyl-5-oxo-1,2,3,5-tetrahydro-imidazo[1,2-a]pyridin-8-yl]-amide]	100	0.019
Cc1c(Nc2ccc(I)cc2F)c(NS(=O)(=O)C2CC(O)C2)c2n(c1=O)CCO2 (centres unmarked) [Example 13A, 3-Hydroxy-cyclobutanesulfonic acid [7-(2-fluoro-4-iodo-phenylamino)-6-methyl-5-oxo-2,3-dihydro-5H-oxazolo[3,2-a]pyridin-8-yl]-amide]	100	0.122
Cc1c(Nc2ccc(I)cc2F)c(NS(=O)(=O)C2(CC(O)CO)CC2)c2n(c1=O)CCS2 (centres unmarked) [Example 20A, 1-(2,3-Dihydroxy-propyl)-cyclopropanesulfonic acid [7-(2-fluoro-4-iodo-phenylamino)-6-methyl-5-oxo-2,3-dihydro-5H-thiazolo[3,2-a]pyridin-8-yl]-amide]	100	0.054
Cc1c(Nc2ccc(Br)cc2F)c(NS(=O)(=O)C2CC2)c2n(c1=O)CCN2Cc1ccccc1 [Example 1A, Cyclopropanesulfonic acid [1-benzyl-7-(4-bromo-2-fluoro-phenylamino)-6-methyl-5-oxo-1,2,3,5-tetrahydro-imidazo[1,2-a]pyridin-8-yl]-amide]	70	
Cc1c(Nc2ccc(I)cc2F)c(NS(=O)(=O)C2CC2CO)c2n(c1=O)CCO2 (centres unmarked) [Example 8A, 2-Hydroxymethyl-cyclopropanesulfonic acid [7-(2-fluoro-4-iodo-phenylamino)-6-methyl-5-oxo-2,3-dihydro-5H-oxazolo[3,2-a]pyridin-8-yl]-amide]	100	0.122
Cc1c(Nc2ccc(I)cc2F)c(NS(=O)(=O)CC2(C)COC2)c2n(c1=O)CCO2 [Example 16A, N-(7-(2-fluoro-4-iodophenylamino)-6-methyl-5-oxo-3,5-dihydro-2H-oxazolo[3,2-a]pyridin-8-yl)-1-(3-methyloxetan-3-yl)methanesulfonamide]	100	1.3
Cc1c(Nc2ccc(I)cc2F)c(NS(=O)(=O)C2CC(O)C2)c2n(c1=O)CCS2 (centres unmarked) [Example 25A, 3-Hydroxy-cyclobutanesulfonic acid [7-(2-fluoro-4-iodo-phenylamino)-6-methyl-5-oxo-2,3-dihydro-5H-thiazolo[3,2-a]pyridin-8-yl]-amide]	100	0.922
Cc1c(Nc2ccc(I)cc2F)c(NS(=O)(=O)C2CC2)c2n(c1=O)CCS2 [Example 19A, Cyclopropanesulfonic acid [7-(2-fluoro-4-iodo-phenylamino)-6-methyl-5-oxo-2,3-dihydro-5H-thiazolo[3,2-a]pyridin-8-yl]-amide]	100	0.0003
Cc1c(Nc2ccc(I)cc2F)c(NS(=O)(=O)CCC2COC2)c2n(c1=O)CCO2 [Example 17A, N-(7-(2-fluoro-4-iodophenylamino)-6-methyl-5-oxo-3,5-dihydro-2H-oxazolo[3,2-a]pyridin-8-yl)-2-(oxetan-3-yl)ethanesulfonamide]		1.73
Cc1c(Nc2ccc(I)cc2F)c(NS(=O)(=O)C2CC(C(CO)CO)C2)c2n(c1=O)CCO2 (centres unmarked) [Example 15A, 3-(1,3-dihydroxypropan-2-yl)-N-(7-(2-fluoro-4-iodophenylamino)-6-methyl-5-oxo-3,5-dihydro-2H-oxazolo[3,2-a]pyridin-8-yl)cyclobutane-1-sulfonamide]	100	1.53
Cc1c(Nc2ccc(I)cc2F)c(NS(=O)(=O)C2CC2CO)c2n(c1=O)CCS2 (centres unmarked) [Example 21A, 2-Hydroxymethyl-cyclopropanesulfonic acid [7-(2-fluoro-4-iodo-phenylamino)-6-methyl-5-oxo-2,3-dihydro-5H-thiazolo[3,2-a]pyridin-8-yl]-amide]	100	0.158
